Measured values published in patent US11510852B2 (THE ROYAL INSTITUTION FOR THE ADVANCEMENT OF …, priority 2019, dated 2022).

Experiments:
[1] = UV visible spectroscopy of supernatant after addition of hydroxy-apatite powder; assay type: binding; details: 306 nm MeSa, 272 nm thymol
Protocol: (§1) To analyze how the different tested molecules (methyl salicylate, thymol and spearmint oil) interact with composite and the tooth structure UV Visible spectroscopy was used. Dilute solutions of the three tested molecules were prepared. […] The resulting solutions were analyzed in triplicates using UV visible spectrophotometer (Evolution 200 series, Thermo Scientific, Madison, USA) and the resulting absorbance peaks were plotted as control (FIG. 1). After this, equal weights of composite resin and hydroxy-apatite powders were added to equal volumes of the diluted solutions of the three tested molecules.
(§2) The characterization of the interaction between the staining components and both composite resin and the tooth structure was performed using UV visible spectroscopy which was chosen to characterize indirectly the insoluble powder; a method that is largely used in pharmaceutical industry. In this method, different weights of insoluble polymer are added to a known concentration of a solute with a clear fingerprint in UV-vis spectrum. After each addition, the filtered solutions are then analyzed using UV-vis spectrophotometer and the resultant effect on the UV spectrum is compared to the baseline readings.

[2] = UV visible spectroscopy of supernatant after addition of composite resin powder; assay type: binding; details: 306 nm methyl salicylate, 272 nm thymol
Protocol: as §1, §2

SMILES: COC(=O)c1ccccc1O [methyl salicylate]
- change of main absorbance peak ([1]; 0.3 g hydroxy-apatite): 13±22%
- change of main absorbance peak ([1]; 0.5 g hydroxy-apatite): 11±14%
- change of main absorbance peak ([1]; 0.8 g hydroxy-apatite): 1.1±15%
- decrease of main absorbance peak ([2]; 0.3 g composite resin): 37±3.9%
- decrease of main absorbance peak ([2]; 0.5 g composite resin): 38±25%
- decrease of main absorbance peak ([2]; 0.8 g composite resin): 85±12%

SMILES: Cc1ccc(C(C)C)c(O)c1 [thymol]
- change of main absorbance peak ([1]; 0.3 g hydroxy-apatite): 14±3.3%
- change of main absorbance peak ([1]; 0.5 g hydroxy-apatite): 10±9.2%
- change of main absorbance peak ([1]; 0.8 g hydroxy-apatite): 7±1.6%
- decrease of main absorbance peak ([2]; 0.3 g composite resin): 47±17%
- decrease of main absorbance peak ([2]; 0.5 g composite resin): 55±1.2%
- decrease of main absorbance peak ([2]; 0.8 g composite resin): 66±2.9%
